Source: patent US8748412B2, “Phenylalanine derivatives and their use as non-peptide GLP-1 receptor modulators” (Argusina Bioscience Inc., priority 2011, dated 2014)

These compounds were tested against T1, human GLP1R (Homo sapiens, UniProt P43220) (assay: Human GLP-1 receptor transfected cell assay (MRE/CRE-luciferase reporter gene, agonist activity)). Settings: 6 h; conc. 10 μM; percentage of the activity of the control; read-out: Agonist Activity.
T1 construct: expressed in transfected cells; host or cells: CHO cells (ATCC), transient transfection with pCMV-human GLP1R
Format: cell-based
Outline: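 CHO cells transiently co-transfected with human GLP1R and MRE/CRE-driven luciferase reporter plasmids. Compound or GLP-1 (7-36 amide) standard dilution series added for 6 h at 37 °C, 5% CO2. Agonist activity read as Bright-Glo luciferase luminescence.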

T1 sequence (P43220 24-463): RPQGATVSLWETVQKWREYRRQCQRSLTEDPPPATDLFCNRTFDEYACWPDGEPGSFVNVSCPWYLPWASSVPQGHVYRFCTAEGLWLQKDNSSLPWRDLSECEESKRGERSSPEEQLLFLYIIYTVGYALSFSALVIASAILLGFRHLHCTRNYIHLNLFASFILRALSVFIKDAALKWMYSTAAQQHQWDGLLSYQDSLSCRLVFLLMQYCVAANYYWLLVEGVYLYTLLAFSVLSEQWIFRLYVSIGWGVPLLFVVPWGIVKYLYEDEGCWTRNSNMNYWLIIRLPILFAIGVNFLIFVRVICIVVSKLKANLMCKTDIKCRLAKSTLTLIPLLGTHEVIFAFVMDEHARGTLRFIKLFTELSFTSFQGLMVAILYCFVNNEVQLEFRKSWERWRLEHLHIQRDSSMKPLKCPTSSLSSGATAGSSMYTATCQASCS

activation at 10 µM	Structure (SMILES)
40 to 60%	Cc1ccc(-c2ccc(C(=O)NC(Cc3ccc(-c4noc(-c5ccc(NC(=O)OC(C)(C)C)cc5)n4)c(C#N)c3)C(=O)O)o2)cc1 (stereo not drawn) [Compound 13I]
> 60%	CC(C)(C)OC(=O)Nc1ccc(-c2nc(-c3ccc(CC(NC(=O)N4CCN(c5ccccc5C#N)CC4)C(=O)O)cc3F)no2)cc1 (stereo not drawn) [Compound 12D]
> 60%	Cc1ccc(N2CCC(NC(=O)NC(Cc3ccc(-c4noc(-c5ccc(NC(=O)OC(C)(C)C)cc5)n4)c(F)c3)C(=O)O)C2)cc1 (stereo not drawn) [Compound 13P]
40 to 60%	Cc1ccc(S(=O)(=O)NC(Cc2ccc(-c3noc(-c4ccc(NC(=O)OC(C)(C)C)cc4)n3)c(F)c2)C(=O)O)cc1Cl (stereo not drawn) [Compound 11F]
> 60%	CC(C)(C)OC(=O)Nc1ccc(-c2nc(-c3ccc(CC(NC(=O)N4CCN(c5ccc(Cl)cc5)CC4)C(=O)O)cc3F)no2)cc1 (stereo not drawn) [Compound 13A]
40 to 60%	CC(C)(C)OC(=O)Nc1ccc(-c2nc(-c3ccc(CC(NS(=O)(=O)N4CCN(C(=O)OC(C)(C)C)CC4)C(=O)O)cc3F)no2)cc1 (stereo not drawn) [Compound 11W]
> 60%	CC(C)(C)OC(=O)Nc1ccc(-c2nc(-c3ccc(CC(NC(=O)Nc4cc(-c5ccc(F)c(Br)c5)n[nH]4)C(=O)O)cc3F)no2)cc1 (stereo not drawn) [Compound 13S]
> 60%	CC(C)(C)OC(=O)Nc1ccc(-c2nc(-c3ccc(CC(NC(=O)c4cccc(-c5ccc(Cl)cc5)c4)C(=O)O)cc3F)no2)cc1 (stereo not drawn) [Compound 13Q]
20 to 40%	CC(C)(C)OC(=O)Nc1ccc(-c2nc(-c3ccc(CC(NC(=O)c4ccc(-c5ccc(F)cc5)s4)C(=O)O)cc3F)no2)cc1 (stereo not drawn) [Compound 11P]
> 60%	CC(C)(C)OC(=O)Nc1ccc(-c2nc(-c3ccc(CC(NS(=O)(=O)N4CCN(c5ccccc5)CC4)C(=O)O)cc3F)no2)cc1 (stereo not drawn) [Compound 11X]
40 to 60%	CC(C)(C)OC(=O)Nc1ccc(-c2nc(-c3ccc(CC(NS(=O)(=O)NCc4ccccc4)C(=O)O)cc3F)no2)cc1 (stereo not drawn) [Compound 11Z]
> 60%	COc1ccc(-c2cncc(C(=O)NC(Cc3ccc(-c4noc(-c5ccc(NC(=O)OC(C)(C)C)cc5)n4)c(F)c3)C(=O)O)c2)cc1 (stereo not drawn) [Compound 14G]
40 to 60%	CC(C)(C)OC(=O)Nc1ccc(-c2nc(-c3ccc(CC(NC(=O)CN4CCN(C(=O)OC(C)(C)C)CC4)C(=O)O)cc3F)no2)cc1 (stereo not drawn) [Compound 11T]
> 60%	CC(C)(C)OC(=O)Nc1ccc(-c2nc(-c3ccc(CC(NC(=O)c4ccc(-c5ccc([N+](=O)[O-])cc5)o4)C(=O)O)cc3F)no2)cc1 (stereo not drawn) [Compound 11G]

Same assay, conditions: 6 h; concentration 1 μM; read-out: Activity (agonist), percentage of the activity of the control

Structure (SMILES)	activation at 1 µM
Cc1ccc(-c2ccc(NC(=O)NC(Cc3ccc(-c4noc(-c5ccc(NC(=O)OC(C)(C)C)cc5)n4)c(F)c3)C(=O)O)nc2)cc1 (stereo not drawn) [Compound 4T]	40 to 60%
CC(C)(C)OC(=O)Nc1ccc(-c2nc(-c3ccc(CC(NC(=O)c4cccc(NCc5ccccc5)c4)C(=O)O)cc3F)no2)cc1 (stereo not drawn) [Compound 3U]	20 to 40%
CC(C)(C)OC(=O)Nc1ccc(-c2nc(-c3ccc(CC(NC(=O)c4cc(-c5ccc(Cl)cc5F)c[nH]4)C(=O)O)cc3F)no2)cc1 (stereo not drawn) [Compound 3L]	20 to 40%
Cc1cc(C[C@@H](NC(=O)c2ccc(-c3ccc(Cl)cc3F)o2)C(=O)O)ccc1-c1noc(-c2ccc(NC(=O)OC(C)(C)C)cc2)n1 [Compound 6S]	20 to 40%
CC(C)(C)OC(=O)Nc1ccc(-c2nc(-c3ccc(C[C@@H](NC(=O)c4ccc(-c5ccc(C6CC6)cc5)o4)C(=O)O)cc3F)no2)cc1 [Compound 6G]	40 to 60%

Other lines, results leading:

activation at 1 µM	Structure (SMILES)
> 60%	Cc1cc(-c2ccc(C(=O)N[C@H](Cc3ccc(-c4noc(-c5ccc(NC(=O)OC(C)(C)C)cc5)n4)c(F)c3)C(=O)O)o2)ccc1F [Compound 9E]
> 60%	Cc1cc(-c2ccc(C(=O)N[C@@H](Cc3ccc(-c4noc(-c5ccc(NC(=O)OC(C)(C)C)cc5)n4)c(F)c3)C(=O)O)o2)ccc1F [Compound 10E]

Same assay, conditions: 6 h; concentration 3 μM; read-out: Activity (agonist), percentage of the activity of the control

activation at 3 µM	Structure (SMILES)
> 60%	CC(C)(C)OC(=O)Nc1ccc(-c2nc(-c3ccc(CC(NC(=O)c4cc(-c5ccc(F)cc5)n[nH]4)C(=O)O)cc3F)no2)cc1 (stereo not drawn) [Compound 3R]
> 60%	Cc1ccc(N2CCN(S(=O)(=O)NC(Cc3ccc(-c4noc(-c5ccc(NC(=O)OC(C)(C)C)cc5)n4)c(F)c3)C(=O)O)CC2)cc1 (stereo not drawn) [Compound 3Z]
> 60%	CC(C)(C)OC(=O)Nc1ccc(-c2nc(-c3ccc(CC(NC(=O)c4cccc(-c5ccc(C(F)(F)F)cc5)c4)C(=O)O)cc3F)no2)cc1 (stereo not drawn) [Compound 1W]
20 to 40%	Cc1ccc(-c2ccc(C(=O)NC(Cc3ccc(-c4noc(-c5ccc(NC(=O)OC(C)(C)C)cc5C)n4)c(F)c3)C(=O)O)o2)cc1 (stereo not drawn) [Compound 1R]
40 to 60%	CC(C)(C)OC(=O)Nc1ccc(-c2nc(-c3ccc(CC(NC(=O)Nc4ccc(C(C)(C)C)cc4)C(=O)O)cc3F)no2)cc1 (stereo not drawn) [Compound 4V]
40 to 60%	CC(C)(C)OC(=O)Nc1ccc(-c2nc(-c3ccc(CC(NC(=O)Nc4ccc(C#N)cc4)C(=O)O)cc3F)no2)cc1 (stereo not drawn) [Compound 4U]
40 to 60%	Cc1ccc(-c2ccc(C(=O)N[C@H](Cc3cc(C)cc(-c4noc(-c5ccc(NC(=O)OC(C)(C)C)cc5)n4)c3)C(=O)O)o2)cc1 [Compound 2E]
> 60%	Cc1ccc(-c2cccc(C(=O)N[C@@H](Cc3ccc(-c4noc(-c5ccc(NC(=O)OC(C)(C)C)cc5)n4)c(F)c3)C(=O)O)c2)cc1 [Compound 8E]

Same assay, conditions: 6 h; concentration 3.16 μM; read-out: Activity (agonist), percentage of the activity of the control

activation at 3.16 µM	Structure (SMILES)
> 60%	Cc1ccc(-c2ccc(C(=O)NC(Cc3ccc(-c4noc(-c5ccc(NC(=O)OC(C)(C)C)cc5)n4)c(F)c3)c3nnn[nH]3)o2)cc1 (stereo not drawn) [Compound 1H]
> 60%	Cc1cc(-c2nc(C(=O)NC(Cc3ccc(-c4noc(-c5ccc(NC(=O)OC(C)(C)C)cc5)n4)c(F)c3)C(=O)O)c[nH]2)ccc1F (stereo not drawn) [Compound 2Q]
> 60%	Cc1ccc(-c2ccc(C(=O)N[C@@H](Cc3ccc(-c4noc(-c5ccc(NC(=O)OC(C)(C)C)cc5)n4)c(F)c3)C(=O)O)o2)cc1 [Compound 12E]
> 60%	CC(C)(C)OC(=O)Nc1ccc(-c2nc(-c3ccc(CC(NC(=O)c4cccc(-c5ccc(C#N)cc5)c4F)C(=O)O)cc3F)no2)cc1 (stereo not drawn) [Compound 2J]
> 60%	CC(C)(C)OC(=O)Nc1ccc(-c2nc(-c3ccc(CC(NC(=O)Nc4ccncc4)C(=O)O)cc3F)no2)cc1 (stereo not drawn) [Compound 4H]
> 60%	Cc1ccc(NC(=O)NC(Cc2ccc(-c3noc(-c4ccc(NC(=O)OC(C)(C)C)cc4)n3)c(F)c2)C(=O)O)cc1 (stereo not drawn) [Compound 4M]
> 60%	CC(C)(C)OC(=O)Nc1ccc(-c2nc(-c3ccc(CC(NC(=O)Nc4cc(-c5ccc(Cl)cc5)n[nH]4)C(=O)O)cc3F)no2)cc1 (stereo not drawn) [Compound 4I]
> 60%	CC(C)(C)OC(=O)Nc1ccc(-c2nc(-c3ccc(CC(NC(=O)c4ccc(-c5ccc(Cl)cc5Cl)o4)C(=O)O)cc3F)no2)cc1 (stereo not drawn) [Compound 1L]
> 60%	CC(C)(C)OC(=O)Nc1ccc(-c2nc(-c3ccc(CC(NC(=O)N4CCCN(c5ccc(F)cn5)CC4)C(=O)O)cc3F)no2)cc1 (stereo not drawn) [Compound 4Q]
40 to 60%	CC(C)(C)OC(=O)Nc1ccc(-c2nc(-c3ccc(CC(NS(=O)(=O)N4CCN(c5ccccc5F)CC4)C(=O)O)cc3F)no2)cc1 (stereo not drawn) [Compound 4B]
40 to 60%	CC(C)(C)OC(=O)Nc1ccc(-c2nc(-c3ccc(CC(NC(=O)Nc4ccnc(Cl)c4)C(=O)O)cc3F)no2)cc1 (stereo not drawn) [Compound 4L]

Structure (SMILES)	activation at 3.16 µM
Cc1ccc(-n2cc(C(=O)NC(Cc3ccc(-c4noc(-c5ccc(NC(=O)OC(C)(C)C)cc5)n4)c(F)c3)C(=O)O)cn2)cc1F (stereo not drawn) [Compound 3B]	> 60%

Same assay, conditions: 6 h; concentration 5 μM; read-out: Activity (agonist), percentage of the activity of the control

activation at 5 µM	Structure (SMILES)
> 60%	Cc1ccc(N2CCN(CC(=O)NC(Cc3ccc(-c4noc(-c5ccc(NC(=O)OC(C)(C)C)cc5)n4)c(F)c3)C(=O)O)CC2)cc1 (stereo not drawn) [Compound 5H]
> 60%	CC(C)(C)OC(=O)Nc1ccc(-c2nc(-c3ccc(CC(NC(=O)c4ccnc(Cl)c4)C(=O)O)cc3F)no2)cc1 (stereo not drawn) [Compound 1F]

Same assay, conditions: 6 h; concentration 10 μM; read-out: Activity (agonist), percentage of the activity of the control

activation at 10 µM	Structure (SMILES)
40 to 60%	CC(C)(C)OC(=O)Nc1ccc(-c2nc(-c3ccc(CC(NS(=O)(=O)N4CCN(c5ccc(Cl)cc5)CC4)C(=O)O)cc3F)no2)cc1 (stereo not drawn) [Compound 4A]
20 to 40%	COc1ccc(C#CC(=O)N[C@H](Cc2ccc(-c3noc(-c4ccc(NC(=O)OC(C)(C)C)cc4)n3)c(F)c2)C(=O)O)cc1 [Compound 6M]
> 60%	COc1cc2c(cc1OC(=O)c1ccc(NC(=O)OC(C)(C)C)cc1)CN(C(=O)c1ccc(-c3ccc(C)cc3)o1)C(C(=O)O)C2 (stereo not drawn) [Compound 5W]
> 60%	Cc1ccc(-c2ccc(NC(=O)NC(Cc3ccc(-c4noc(-c5ccc(NC(=O)OC(C)(C)C)cc5)n4)c(F)c3)C(=O)O)cn2)cc1 (stereo not drawn) [Compound 4O]
> 60%	CSc1ccc(-c2cccc(C(=O)NC(Cc3ccc(-c4noc(-c5ccc(NC(=O)OC(C)(C)C)cc5)n4)c(F)c3)C(=O)O)n2)cc1 (stereo not drawn) [Compound 2O]
> 60%	CC(C)(C)OC(=O)Nc1ccc(-c2nc(-c3ccc(CC(NS(=O)(=O)N4CCN(c5ccc(C(F)(F)F)cc5)CC4)C(=O)O)cc3F)no2)cc1 (stereo not drawn) [Compound 3Y]
20 to 40%	CC(C)(C)OC(=O)Nc1ccc(-c2nc(-c3ccc(CC(NC(=O)c4coc(-c5ccc(Cl)cc5)n4)C(=O)O)cc3F)no2)cc1 (stereo not drawn) [Compound 3H]
> 60%	CC(C)(C)OC(=O)Nc1ccc(-c2nc(-c3ccc(C[C@@H](NC(=O)c4cccc(-c5ccc(Cl)c(F)c5)c4)C(=O)O)cc3F)no2)cc1 [Compound 6F]
